Assay results: ChEMBL document CHEMBL1152593, “Furanocoumarins: novel topoisomerase I inhibitors from Ruta graveolens L” (Bioorg Med Chem, 2009)
The source made the active and inactive calls. The rule behind the calls is not given here.

Key:
[1] = organism: Bos taurus; experiment: Inhibition of calf thymus DNA topoisomerase 1 assessed as pUC19 DNA relaxation at 10 uM by gel electrophoresis
[2] = organism: Bos taurus; experiment: (§1) Inhibition of calf thymus DNA topoisomerase 1 assessed as pUC19 DNA relaxation by gel electrophoresis
[3] = as §1; parameters: species or system Bos taurus
[4] = organism: Bos taurus; experiment: Inhibition of calf thymus DNA topoisomerase 1 assessed as pUC19 DNA relaxation at 40 uM by gel electrophoresis
[5] = organism: Bos taurus; experiment: Inhibition of calf thymus DNA topoisomerase 1 assessed as pUC19 DNA relaxation at 20 uM by gel electrophoresis

SMILES	Activity [1]	inhibition [2]	IC50 [3]	inhibition [4]	inhibition [5]	inhibition [1]
COc1c2ccoc2cc2oc(=O)ccc12 [BERGAPTEN]	Active	Dose-dependent effect	6.5 µM	–	–	–
COc1c2occc2cc2ccc(=O)oc12 [METHOXSALEN]	–	Dose-dependent effect	28 µM	Active	–	–
O=c1ccc2cc3ccoc3cc2o1 [PSORALEN]	–	Dose-dependent effect	11 µM	–	100%	inactive
